Tests used:
[1] = system: HEK cells expressing TRPV1.459-6x-His, TRPV1.465-6x-His or untagged TRPV1; test: whole cell voltage clamp in HEK cells expressing TRPV1 variants, activated by capsaicin; type: cell-based; settings: TRPV1 agonist capsaicin 2.5 μM bath applied; voltage clamp −60 mV; mean±s.e.m
From the text: First, they developed a system based on rat TRPV1 channels and gold nanorods with absorption maxima at 915 nm. 915 nm was selected to ensure low water absorption. […] To measure if tagged channels are functional, they performed whole cell voltage clamp in HEK cells expressing TRPV1.459-6x-His, TRPV1.465-6x-His or untagged TRPV1 while activating the channels by TRPV1 agonist capsaicin. The size of evoked currents were similar between TRPV1.465-6x-His and TRPV1 (Mann-Whitney U test, P=0.8551; TRPV1.465-6x-His, 1633±164 pA, […] 15 cells; TRPV1, 1766±276 pA, n=14 cells; mean±s.e.m), but less in TRPV1.459-6x-His (Mann-Whitney U test, P=0.0207; TRPV1.459-6x-His, 976±118 pA, n=19 cells; mean±s.e.m). Therefore, they used TRPV1.465-6x-His (rTRPV1) in subsequent experiments.
For HEK293T cell experiments, cells were maintained at 37° C. on poly-D-lysine/laminin coated coverslips (GG-12-Laminin, Neuvitro) in DMEM supplemented with 10% fetal bovine serum. Cells were transfected with plasmids containing TRP variants using branched PEI. Cells were perfused in oxygenated Ringer's medium containing 110 mM NaCl, 2.5 mM KCl, 1 mM CaCl2, 1.6 mM MgCl2, 10 mM D-glucose and 22 mM NaHCO3 at ˜36° C. for the duration of the experiment. […] Data was analyzed offline using MATLAB (MathWorks).

[2] = system: human retina (ONL, INL, GCL cells); test: two-photon acousto-optic calcium imaging of NIR responses in ex vivo human retina; type: cell-based
From the text: High-speed three-dimensional acousto-optic calcium imaging of neuronal network activity permits observation of response propagation from photoreceptors through the retina. To detect NIR light driven responses in the human retina, the inventors deposited nanorods (Abs 915 nm) over the photoreceptor side of the retina and performed two-photon calcium imaging of individual cells in the outer nuclear layer (ONL), which hosts photoreceptors, the inner nuclear layer (INL), which hosts horizontal, bipolar and amacrine cells, and the ganglion cell layer (GCL) which hosts ganglion and amacrine cells. To record calcium signals, the fluorescent calcium dye Oregon Green 488 BAPTA-1 (OGB-1) was electroporated into the cells. […] In cells of the INL and GCL layers, bidirectional changes in the calcium signal indicate activation of excitatory and inhibitory retinal pathways. More cells responded in the GCL than in the ONL, reflecting convergent retinal circuit organization (Chi Squared Test, P=0.0006; GCL, n=41 responding neurons, n=83 total neurons, 49.4%; ONL, n=16 responding photoreceptors, n=74 total photoreceptors, 21.6%). There was no significant difference in number of NIR light responding cells between INL and GCL (Chi Squared Test, P=0.89; INL, n=46 responding neurons, n=93 total neurons, 49.5%).
Human retinal tissue was obtained after corneal tissue harvest from adult multi-organ donors with no reported history of eye disease, n=2 eyes from n=2 donors. After cornea isolation, the iris, lens, and vitreous were removed and the retina was submerged in flowing Ames' medium (Sigma, A1420) saturated with 95% O2 and 5% CO2. […] Samples used for tissue culture were of mid-peripheral origin, midway between the fovea and the anterior retinal border. For organotypic retinal culture, 4×4 mm retinal pieces were isolated and placed photoreceptor-side-up on polycarbonate membranes inserts (Corning, 3412). The cultures were maintained at 37° C. and 5% CO2 in DMEM/F12 medium (Thermo Fisher Scientific), supplemented with 0.1% bovine serum albumin (BSA), 10 μM O-acetyl-L-carnitine hydrochloride, 1 mM fumaric acid, 0.5 mM galactose, 1 mM glucose, 0.5 mM glycine, 10 mM HEPES, 0.05 mM mannose, 13 mM sodium bicarbonate, 3 mM taurine, 0.1 mM putrescine dihydrochloride, 0.35 μM retinol, 0.3 μM retinyl acetate, 0.2 μM (+)-α-tocopherol, 0.5 mM ascorbic acid, 0.05 μM sodium selenite, 0.02 μM hydrocortisone, 0.02 μM progesterone, 1 μM insulin, 0.003 μM 3,3′,5-triiodo-L-thyronine, 2 000 U penicillin and 2 mg streptomycin (Sigma). For AAV infection, 40 μL of virus was applied per retinal explant 4-5 days after plating. The culture medium was renewed every 48 hours. Light responses were recorded from samples 8 weeks post-mortem. […]

[3] = nanorods (Abs 915 nm) on photoreceptor side, 8 weeks post-mortem

TRPV1.465-6x-His: rat TRPV1 channel with 6x-His epitope tag inserted in the first extracellular loop after amino acid 465; delivered by AAV
size of evoked currents [1]: 1633±164 pA
NIR light responding cells in the GCL [2, 3]: 49.4%
NIR light responding cells in the INL [2, 3]: 49.5%
NIR light responding photoreceptors in the ONL [2, 3]: 21.6%
NIR light-evoked activation in retinal explants ([2]; rTRPV1 transduced explants (n=3), nanorods (Abs 915 nm)): NIR light-evoked activation could be detected
